In brackets after ≈: the same amount, converted by molar mass.
What was measured:
Gross leukemia [1] = experiment: Oral activity against i.v. transplanted Gross leukemia (i.v. comparators); type: in vivo, C3H/Me mice; conditions: for T/C %, median survival time / Toxic deaths: Table 7
Excerpt: (§1) Results of studies performed in C3H/Me mice carrying i.v. transplanted Gross leukemia and treated i.v. the day after tumor transplantation, are reported in Table 6. […] The compounds Ib and Id were further investigated for oral activity on Gross leukemic transplanted i.v., in comparison with DNR, DX given i.v. and 4-dm DNR given oral route.
Oral activity of Ib and Id against Gross leukemia
^a days after transplantation
(§2) ^d data of two experiments (range)

HeLa cells = experiment: Colony inhibition test against HeLa cells in vitro (cloning efficiency), treatment for 24 hrs; type: cell-based
ascitic P388 leukemia = experiment: Antitumor activity against ascitic P388 leukemia in CDF-1 mice, treatment i.p. on day 1; type: in vivo; conditions: for LTS, long term survivors (≥ 60 days) / T/C, median survival time; % over untreated controls / Toxic deaths (autoptic findings on dead mice): Table 5
Protocol: The primary screening […] was carried out in CDF-1 mice bearing ascitic P388 leukemia (10^6 cells/mouse). Both IIa and IIc were suspended in 10%. Tween 80 and injected intraperitoneally.
Results of the primary screening "in vivo" carried out in CDF-1 mice bearing P388 ascitic leukemia and treated i.p. the day after tumor transplantation, are reported in Table 5.
Antitumor activity against ascitic P388 leukekemia.
(§3) Treatment i.p. on day 1.
^a median survival time; % over untreated controls
^b long term survivors (≥ 60 days)
^c evaluated on the basis of autoptic findings on dead mice
as §2
^e date of three experiments (range)
Antitumor activity of Ib and Id against ascitic P388
as §3

Gross leukemia [2] = experiment: Antitumor activity against i.v. transplanted Gross leukemia in C3H/Me mice, treatment i.v. on day 1; type: in vivo; conditions: for T/C, median survival time; % over untreated controls / Toxic deaths: Table 6
Excerpt: as §1
Antitumor activity against i.v. Gross leukemia.
Treatment i.v. on day 1.

Structure (SMILES): C[C@@H]1O[C@@H](O[C@H]2C[C@](O)(C(=O)CO)Cc3c(O)c4c(c(O)c32)C(=O)c2ccccc2C4=O)C[C@H](O)[C@H]1O [Compound Id, 4-demethoxy-7-0-(2,6-dideoxy-α-L-arabino-hexopyranosyl)-adriamycinone]
- T/C %, median survival time (Gross leukemia [1]; oral +1, 1.2 mg/kg): 171%
- Toxic deaths (Gross leukemia [1]; oral +1, 1.2 mg/kg): 0/9
- T/C %, median survival time (Gross leukemia [1]; oral +1, 2.1 mg/kg): 185%
- Toxic deaths (Gross leukemia [1]; oral +1, 2.1 mg/kg): 0/8
- T/C %, median survival time (Gross leukemia [1]; oral +1, 3.8 mg/kg): 214%
- Toxic deaths (Gross leukemia [1]; oral +1, 3.8 mg/kg): 3/8
- T/C %, median survival time (Gross leukemia [1]; oral days 1,2,3, 0.48 mg/kg): 183%
- Toxic deaths (Gross leukemia [1]; oral days 1,2,3, 0.48 mg/kg): 0/10
- T/C %, median survival time (Gross leukemia [1]; oral days 1,2,3, 0.62 mg/kg): 208%
- Toxic deaths (Gross leukemia [1]; oral days 1,2,3, 0.62 mg/kg): 0/10
- Toxic deaths (Gross leukemia [1]; oral days 1,2,3, 0.8 mg/kg, two experiments): 2/20
- T/C %, median survival time (Gross leukemia [1]; oral days 1,2,3, 0.8 mg/kg, two experiments (range)): 233-258%
- antitumor activity given orally at day 1 (Gross leukemia [1]; oral day 1, Gross leukemia, Id at the Mx TD vs DX i.v.): less active than DX i.v.
- antitumor activity given orally days 1,2,3 (Gross leukemia [1]; oral days 1,2,3, vs DX i.v.): higher than that of DX given i.v.
- cytotoxicity in comparison with DX (HeLa cells; HeLa cells cloning efficiency): as cytotoxic as DX
- activity at 0.0015 µg/mL (HeLa cells; Homo sapiens, HeLa, Table 3, 1.5 ng/ml, 24 hrs, read-out: No of colonies, % of untreated controls): 106%
- activity at 0.0062 µg/mL (HeLa cells; Homo sapiens, HeLa, Table 3, 6.2 ng/ml, 24 hrs, read-out: No of colonies, % of untreated controls): 59%
- activity at 0.025 µg/mL (HeLa cells; Homo sapiens, HeLa, Table 3, 25 ng/ml, 24 hrs, read-out: No of colonies, % of untreated controls): 0%
- activity at 0.1 µg/mL (HeLa cells; Homo sapiens, HeLa, Table 3, 100 ng/ml, 24 hrs, read-out: No of colonies, % of untreated controls): 0%
- IC50 (HeLa cells; Homo sapiens, Table 3, HeLa colony inhibition, 24 hrs, read-out: ID50 (the source's name)): ~7 ng/mL (≈ 0.0136 µM)
- LTS, long term survivors (≥ 60 days) (ascitic P388 leukemia; 1.12 mg/kg i.p. day 1): 0/10
- T/C, median survival time; % over untreated controls (ascitic P388 leukemia; 1.12 mg/kg i.p. day 1): 170%
- Toxic deaths (autoptic findings on dead mice) (ascitic P388 leukemia; 1.12 mg/kg i.p. day 1): 0/10
- LTS, long term survivors (≥ 60 days) (ascitic P388 leukemia; 1.68 mg/kg i.p. day 1): 0/10
- T/C, median survival time; % over untreated controls (ascitic P388 leukemia; 1.68 mg/kg i.p. day 1): 185%
- Toxic deaths (autoptic findings on dead mice) (ascitic P388 leukemia; 1.68 mg/kg i.p. day 1): 0/10
- LTS, long term survivors (≥ 60 days) (ascitic P388 leukemia; 2.53 mg/kg i.p. day 1): 1/10
- T/C, median survival time; % over untreated controls (ascitic P388 leukemia; 2.53 mg/kg i.p. day 1): 230%
- Toxic deaths (autoptic findings on dead mice) (ascitic P388 leukemia; 2.53 mg/kg i.p. day 1): 2/10
- times more potent than DX (ascitic P388 leukemia; ascitic P388, i.p. day 1): about 5 times
- antileukemia activity against P388 leukemia (ascitic P388 leukemia; vs DX): good but lower than that of DX
- antitumor activity, comparison of the Mx TD (Gross leukemia [2]; Gross leukemia, i.v. day 1): good antitumor activity, which is of the same order of magnitude as that of DX
- toxicity and potency vs parent compounds (Gross leukemia [2]; Gross leukemia, i.v. day 1): more toxic and more potent than the parent compounds
- T/C, median survival time; % over untreated controls (Gross leukemia [2]; 1.2 mg/kg i.v. day 1): 171%
- Toxic deaths (Gross leukemia [2]; 1.2 mg/kg i.v. day 1): 1/10
- T/C, median survival time; % over untreated controls (Gross leukemia [2]; 2.16 mg/kg i.v. day 1): 200%
- Toxic deaths (Gross leukemia [2]; 2.16 mg/kg i.v. day 1): 1/10
- T/C, median survival time; % over untreated controls (Gross leukemia [2]; 3.8 mg/kg i.v. day 1): 114%
- Toxic deaths (Gross leukemia [2]; 3.8 mg/kg i.v. day 1): 5/9
